Laboratory results: patent US12521375B2, “Pharmaceutical composition for treating fatty liver disease” (Shionogi & Co., Ltd., priority 2020, dated 2026)
One block for each compound: values may come before it.

Tests used:
Tissue distribution test = type: in vivo, Crl:CD (SD) rats; details: rats, intravenous 0.5 mg/kg, 30 minutes after administration
Description: To 8-week-old male Crl:CD (SD) rats, the compound of the present invention was intravenously administered at a dose of 0.5 mg/mL/kg under non-fasted conditions, and 30 minutes after administration, the rats were killed by exsanguination through whole blood collection from the abdominal aorta under anesthesia. Then, the liver and muscles were removed, and a 25% homogenate was prepared with distilled water. The obtained blood was centrifuged, and plasma was then obtained. Then, control plasma and control tissue homogenate were added to the tissue homogenate sample and the plasma sample, respectively, at 1:1, and each sample was measured using LC/MS/MS. The measured area ratio (tissue/plasma) obtained was used as a tissue Kp value. For compound I-12, the value was 6.10 in the liver and 1.29 in muscles, and for compound I-13, the value was 4.06 in the liver and 0.918 in muscles. Therefore, the compound of the present invention has a property of being distributed in the liver and muscles in vivo.

[1] = Metabolic stability test (human); type: in vitro ADME; details: human liver microsomes, 37° C., 30 minutes, NADPH
Description: Commercially available pooled human liver microsomes were reacted with the compound of the present invention for a given time. A residual rate was calculated by comparison between the reacted sample and the unreacted sample to evaluate a degree at which the compound of the present invention is metabolized in the liver.
The compound was reacted at 37° C. for 0 minutes or 30 minutes in the presence of 1 mmol/L NADPH in 0.2 mL of a buffer (50 mmol/L Tris-HCl pH 7.4, 150 mmol/L potassium chloride, and 10 mmol/L magnesium chloride) containing 0.5 mg protein/mL of the human liver microsomes (oxidative reaction). After the reaction, 50 μL of the reaction solution was added to 100 μL of a solution of methanol/acetonitrile=1/1 (v/v) and mixed, and the mixture was centrifuged at 3000 rpm for 15 minutes. The compound of the present invention in the centrifuged supernatant was quantified by LC/MS/MS or solid-phase extraction (SPE)/MS. The amount of the compound of the present invention remained after the reaction was calculated with the amount of the compound at 0 minutes of the reaction defined as 100%.

Crl:CD (SD) rats = test: Influence on platelet count; type: in vivo; details: for Platelet count: oral, 4 days, SD rats; for platelet count in SD rats (in words): within a dose range used for evaluation (50 to 600 mg/kg/day)
Description: The compound of the present invention was suspended in a 0.5% methylcellulose solution so as to have a dose of 50 to 600 mg/kg/day, and was orally repeatedly administered for 4 days to 6-week-old male Crl:CD (SD) rats under non-fasted conditions. On day 5 from the start of administration, blood was collected from the abdominal vena cava under anesthesia, and […]. A platelet count in plasma was evaluated with an automatic hemocytometer.

[2] = test system: mice fed an ultra-high fat, choline-deficient, methionine-lowered diet; test: Effect on liver fibrosis progression in mice fed ultra-high fat, choline-deficient, methionine-lowered diet; type: in vivo, C57BL/6JJcl mice; parameters: 3-hydroxybutyric acid in plasma: unit not given here; details: for Amount of triglyceride in liver / Sirius red-positive area rate / 3-hydroxybutyric acid in plasma / Plasma triglyceride concentration: bid; for Amount of triglyceride in liver / Sirius red-positive area rate: oral, 8 weeks; for gene expression level in the liver, Fasn / gene expression level in the liver, Srebf1: vehicle = 1.00
Description: Six-week-old male C57BL/6JJcl mice were fed an ultra-high fat, choline-deficient, methionine-lowered diet (60 kcal % fat content, using lard, choline-deficient, methionine-lowered (0.1%)), and at the same time, the compound of the present invention was suspended in a vehicle (0.5% methylcellulose aqueous solution) so as to have a dose of 3 to 45 mg/kg/10 mL, and orally repeatedly administered (b.i.d.) for 8 weeks. Blood was collected from the tail vein during the repeated administration period, and biochemical parameters in plasma were measured. After 8 weeks of administration, blood was collected from the abdominal vena cava under anesthesia, and then the liver was collected. Paraffin-embedded sections prepared from the collected liver were subjected to Sirius red staining. A degree of fibrosis progression in the liver was determined from a Sirius red-positive area rate and evaluated.

tissue Kp value (tissue/plasma), liver (Tissue distribution test): 6.10 | tissue Kp value (tissue/plasma), muscles (Tissue distribution test): 1.29 | Amount of compound remained, Human [1]: 83.3% | Platelet count (Crl:CD (SD) rats; 100 mg/kg/day): 987 ± 86 | Platelet count (Crl:CD (SD) rats; 300 mg/kg/day): 988 ± 43 | Platelet count (Crl:CD (SD) rats; 600 mg/kg/day): 1061 ± 85 | platelet count in SD rats (in words) (Crl:CD (SD) rats): did not affect the platelet count | Plasma triglyceride concentration ([2]; 3 mg/kg, Week 2): 32.9 ± 1.3 mg/dL | Plasma triglyceride concentration ([2]; 3 mg/kg, Week 4): 22.4 ± 2.1 mg/dL | Plasma triglyceride concentration ([2]; 3 mg/kg, Week 7): 27.2 ± 1.5 mg/dL | Plasma triglyceride concentration ([2]; 10 mg/kg, Week 2): 30.4 ± 2.2 mg/dL | Plasma triglyceride concentration ([2]; 10 mg/kg, Week 4): 21.5 ± 1.8 mg/dL | Plasma triglyceride concentration ([2]; 10 mg/kg, Week 7): 22.1 ± 1.9 mg/dL | Plasma triglyceride concentration ([2]; 30 mg/kg, Week 2): 23.1 ± 2.5 mg/dL | Plasma triglyceride concentration ([2]; 30 mg/kg, Week 4): 11.1 ± 1.1 mg/dL | Plasma triglyceride concentration ([2]; 30 mg/kg, Week 7): 16.2 ± 1.6 mg/dL
SMILES: C[C@@H](CO[C@H]1CC[C@H](Oc2nc3c(F)cc(OC4CC4)cc3n2C)CC1)NC(N)=O [Compound I-12]
Amount of triglyceride in liver ([2]; 3 mg/kg): 157 ± 7.3 mg/g tissue | Sirius red-positive area rate ([2]; 3 mg/kg): 3.47 ± 0.41% | 3-hydroxybutyric acid in plasma ([2]; 3 mg/kg, Week 2): 128 ± 23 | 3-hydroxybutyric acid in plasma ([2]; 3 mg/kg, Week 4): 155 ± 31 | 3-hydroxybutyric acid in plasma ([2]; 3 mg/kg, Week 7): 108 ± 31 | Amount of triglyceride in liver ([2]; 10 mg/kg): 137 ± 7.2 mg/g tissue | Sirius red-positive area rate ([2]; 10 mg/kg): 4.46 ± 0.69% | 3-hydroxybutyric acid in plasma ([2]; 10 mg/kg, Week 2): 136 ± 23 | 3-hydroxybutyric acid in plasma ([2]; 10 mg/kg, Week 4): 292 ± 27 | 3-hydroxybutyric acid in plasma ([2]; 10 mg/kg, Week 7): 119 ± 34 | Amount of triglyceride in liver ([2]; 30 mg/kg): 144 ± 7.5 mg/g tissue | Sirius red-positive area rate ([2]; 30 mg/kg): 2.29 ± 0.32 % | 3-hydroxybutyric acid in plasma ([2]; 30 mg/kg, Week 2): 189 ± 33 | 3-hydroxybutyric acid in plasma ([2]; 30 mg/kg, Week 4): 292 ± 82 | 3-hydroxybutyric acid in plasma ([2]; 30 mg/kg, Week 7): 187 ± 28 | Sirius red-positive area rate vs vehicle administration group (in words) ([2]; dose of 30 mg/kg): significantly lower than that of the vehicle administration group | amount of triglyceride in the liver vs vehicle administration group (in words) ([2]; dose of 10 or 30 mg/kg): significantly lower than that of the vehicle administration group | concentration of 3-hydroxybutyric acid in plasma vs vehicle administration group (in words) ([2]; mouse, in vivo): higher than that in the vehicle administration group | plasma triglyceride concentration vs vehicle administration group (in words) ([2]; mouse, in vivo): lower than that in the vehicle administration group

tissue Kp value (tissue/plasma), liver (Tissue distribution test): 4.06 | tissue Kp value (tissue/plasma), muscles (Tissue distribution test): 0.918 | Amount of compound remained, Human [1]: 95.4% | Platelet count (Crl:CD (SD) rats; 50 mg/kg/day): 1079 ± 73 | Platelet count (Crl:CD (SD) rats; 100 mg/kg/day): 1048 ± 65 | Platelet count (Crl:CD (SD) rats; 200 mg/kg/day): 1122 ± 87 | platelet count in SD rats (in words) (Crl:CD (SD) rats): did not affect the platelet count | Plasma triglyceride concentration ([2]; 15 mg/kg, Week 0): 61.6 ± 3.1 mg/dL | Plasma triglyceride concentration ([2]; 15 mg/kg, Week 1): 23.7 ± 1.0 mg/dL | Plasma triglyceride concentration ([2]; 15 mg/kg, Week 3): 19.8 ± 1.2 mg/dL | Plasma triglyceride concentration ([2]; 15 mg/kg, Week 5): 19.0 ± 1.7 mg/dL | Plasma triglyceride concentration ([2]; 15 mg/kg, Week 7): 18.8 ± 1.2 mg/dL | Plasma triglyceride concentration ([2]; 45 mg/kg, Week 0): 63.6 ± 3.7 mg/dL | Plasma triglyceride concentration ([2]; 45 mg/kg, Week 1): 22.4 ± 2.5 mg/dL | Plasma triglyceride concentration ([2]; 45 mg/kg, Week 3): 18.9 ± 1.4 mg/dL | Plasma triglyceride concentration ([2]; 45 mg/kg, Week 5): 16.5 ± 1.7 mg/dL | Plasma triglyceride concentration ([2]; 45 mg/kg, Week 7): 15.1 ± 1.0 mg/dL
SMILES: CC(=O)N[C@@H](C)CC[C@H]1OC[C@H](Oc2nc3c(F)cc(OC4CC4)cc3n2C)CO1 [Compound I-13]
Amount of triglyceride in liver ([2]; 15 mg/kg): 179 ± 6.8 mg/g tissue | Sirius red-positive area rate ([2]; 15 mg/kg): 1.33 ± 0.20% | 3-hydroxybutyric acid in plasma ([2]; 15 mg/kg, Week 0): 298 ± 27 | 3-hydroxybutyric acid in plasma ([2]; 15 mg/kg, Week 1): 396 ± 30 | 3-hydroxybutyric acid in plasma ([2]; 15 mg/kg, Week 3): 797 ± 48 | 3-hydroxybutyric acid in plasma ([2]; 15 mg/kg, Week 5): 616 ± 37 | 3-hydroxybutyric acid in plasma ([2]; 15 mg/kg, Week 7): 501 ± 28 | gene expression level in the liver, Fasn ([2]; 15 mg/kg): 0.82 ± 0.20 | gene expression level in the liver, Srebf1 ([2]; 15 mg/kg): 0.70 ± 0.19 | Amount of triglyceride in liver ([2]; 45 mg/kg): 155 ± 7.1 mg/g tissue | Sirius red-positive area rate ([2]; 45 mg/kg): 1.06 ± 0.10 % | 3-hydroxybutyric acid in plasma ([2]; 45 mg/kg, Week 0): 369 ± 28 | 3-hydroxybutyric acid in plasma ([2]; 45 mg/kg, Week 1): 378 ± 28 | 3-hydroxybutyric acid in plasma ([2]; 45 mg/kg, Week 3): 688 ± 72 | 3-hydroxybutyric acid in plasma ([2]; 45 mg/kg, Week 5): 564 ± 77 | 3-hydroxybutyric acid in plasma ([2]; 45 mg/kg, Week 7): 462 ± 45 | gene expression level in the liver, Fasn ([2]; 45 mg/kg): 0.59 ± 0.09 | gene expression level in the liver, Srebf1 ([2]; 45 mg/kg): 0.34 ± 0.05 | Sirius red-positive area rate vs vehicle administration group (in words) ([2]; dose of 45 mg/kg): significantly lower than that of the vehicle administration group | amount of triglyceride in the liver vs vehicle administration group (in words) ([2]; dose of 45 mg/kg): significantly lower than that of the vehicle administration group | Srebf1 and Fas in the liver (in words) ([2]; mouse, in vivo): no increase in Srebf1 and Fas in the liver was observed | concentration of 3-hydroxybutyric acid in plasma vs vehicle administration group (in words) ([2]; mouse, in vivo): higher than that in the vehicle administration group | plasma triglyceride concentration vs vehicle administration group (in words) ([2]; mouse, in vivo): lower than that in the vehicle administration group
